Measured values: the NIST ThermoML archive (doi:10.1021/je500792x)
Numbers after ± are expanded uncertainties.

Test: xn = mol fraction of the nth substance listed
Conditions: Gas, Buoyancy - hydrostatic balance with magnetic suspension - two sinkers

## C [methane] + CCC
323.17 K, 814.12 kPa, x1 = 0.5069
  mass density: 9.4697 ± 0.0061 kg/m3
323.17 K, 861.14 kPa, x1 = 0.2658
  mass density: 12.694 ± 0.005 kg/m3
323.17 K, 956.3 kPa, x1 = 0.2658
  mass density: 14.2336 ± 0.0056 kg/m3
323.17 K, 1057.6 kPa, x1 = 0.2658
  mass density: 15.9088 ± 0.0059 kg/m3
323.17 K, 1155.4 kPa, x1 = 0.2658
  mass density: 17.5614 ± 0.007 kg/m3
373.14 K, 736.34 kPa, x1 = 0.5069
  mass density: 7.2655 ± 0.005 kg/m3
373.14 K, 1298.1 kPa, x1 = 0.5069
  mass density: 13.0615 ± 0.0077 kg/m3
373.14 K, 1387.2 kPa, x1 = 0.5069
  mass density: 14.0021 ± 0.0084 kg/m3
373.14 K, 1906.7 kPa, x1 = 0.5069
  mass density: 19.6043 ± 0.012 kg/m3
373.15 K, 286.24 kPa, x1 = 0.5069
  mass density: 2.7813 ± 0.0033 kg/m3
373.15 K, 293.98 kPa, x1 = 0.7498
  mass density: 2.1956 ± 0.0029 kg/m3
373.15 K, 494.25 kPa, x1 = 0.7498
  mass density: 3.7047 ± 0.0033 kg/m3
373.15 K, 559.53 kPa, x1 = 0.5069
  mass density: 5.4874 ± 0.0042 kg/m3
373.15 K, 587.98 kPa, x1 = 0.5069
  mass density: 5.7723 ± 0.0043 kg/m3
373.15 K, 732.21 kPa, x1 = 0.7498
  mass density: 5.5128 ± 0.0037 kg/m3
373.15 K, 776.15 kPa, x1 = 0.5069
  mass density: 7.6695 ± 0.005 kg/m3
373.15 K, 942.67 kPa, x1 = 0.5069
  mass density: 9.3682 ± 0.0061 kg/m3
373.15 K, 969.14 kPa, x1 = 0.5069
  mass density: 9.6405 ± 0.0061 kg/m3
373.15 K, 973.87 kPa, x1 = 0.7498
  mass density: 7.3646 ± 0.0042 kg/m3
373.15 K, 1118.7 kPa, x1 = 0.5069
  mass density: 11.1859 ± 0.0072 kg/m3
373.15 K, 1177.4 kPa, x1 = 0.5069
  mass density: 11.7969 ± 0.0073 kg/m3
373.15 K, 1222.4 kPa, x1 = 0.7498
  mass density: 9.2859 ± 0.0047 kg/m3
373.15 K, 1491.1 kPa, x1 = 0.7498
  mass density: 11.3819 ± 0.0055 kg/m3
373.15 K, 1497 kPa, x1 = 0.5069
  mass density: 15.1688 ± 0.0086 kg/m3
373.15 K, 1581.5 kPa, x1 = 0.5069
  mass density: 16.0735 ± 0.0087 kg/m3
373.15 K, 1707.3 kPa, x1 = 0.5069
  mass density: 17.4293 ± 0.0087 kg/m3
373.15 K, 1745.3 kPa, x1 = 0.5069
  mass density: 17.8434 ± 0.016 kg/m3
373.15 K, 1990.9 kPa, x1 = 0.7498
  mass density: 15.3338 ± 0.0069 kg/m3
373.15 K, 1998.3 kPa, x1 = 0.7498
  mass density: 15.3921 ± 0.0069 kg/m3
373.15 K, 1999.3 kPa, x1 = 0.5069
  mass density: 20.6289 ± 0.012 kg/m3
373.15 K, 3998.4 kPa, x1 = 0.7498
  mass density: 31.915 ± 0.0087 kg/m3
373.15 K, 4503 kPa, x1 = 0.7498
  mass density: 36.2589 ± 0.0093 kg/m3
373.15 K, 5859.6 kPa, x1 = 0.7498
  mass density: 48.2829 ± 0.0089 kg/m3
373.16 K, 150.36 kPa, x1 = 0.2658
  mass density: 1.7881 ± 0.003 kg/m3
373.16 K, 249.5 kPa, x1 = 0.2658
  mass density: 2.984 ± 0.0032 kg/m3
373.16 K, 442.47 kPa, x1 = 0.2658
  mass density: 5.3479 ± 0.0036 kg/m3
373.16 K, 487.18 kPa, x1 = 0.7498
  mass density: 3.6521 ± 0.0033 kg/m3
373.16 K, 564.91 kPa, x1 = 0.2658
  mass density: 6.8735 ± 0.0038 kg/m3
373.16 K, 592.63 kPa, x1 = 0.2658
  mass density: 7.2228 ± 0.0039 kg/m3
373.16 K, 676.04 kPa, x1 = 0.2658
  mass density: 8.2772 ± 0.0041 kg/m3
373.16 K, 733.18 kPa, x1 = 0.2658
  mass density: 9.007 ± 0.0042 kg/m3
373.16 K, 866.5 kPa, x1 = 0.2658
  mass density: 10.7249 ± 0.0047 kg/m3
373.16 K, 883.43 kPa, x1 = 0.2658
  mass density: 10.9464 ± 0.0047 kg/m3
373.16 K, 963.18 kPa, x1 = 0.2658
  mass density: 11.9881 ± 0.0049 kg/m3
373.16 K, 991.05 kPa, x1 = 0.7498
  mass density: 7.4967 ± 0.0042 kg/m3
373.16 K, 1034.3 kPa, x1 = 0.2658
  mass density: 12.9279 ± 0.005 kg/m3
373.16 K, 1057.2 kPa, x1 = 0.2658
  mass density: 13.2303 ± 0.0052 kg/m3
373.16 K, 1156.4 kPa, x1 = 0.2658
  mass density: 14.557 ± 0.0055 kg/m3
373.16 K, 1174.7 kPa, x1 = 0.2658
  mass density: 14.8058 ± 0.0055 kg/m3
373.16 K, 1293.1 kPa, x1 = 0.2658
  mass density: 16.4139 ± 0.0059 kg/m3
373.16 K, 1468.2 kPa, x1 = 0.7498
  mass density: 11.1998 ± 0.0055 kg/m3
373.16 K, 1985.8 kPa, x1 = 0.7498
  mass density: 15.2929 ± 0.0069 kg/m3
373.16 K, 2987.4 kPa, x1 = 0.7498
  mass density: 23.4236 ± 0.0075 kg/m3
373.16 K, 2996.6 kPa, x1 = 0.7498
  mass density: 23.4974 ± 0.0075 kg/m3
373.16 K, 3945 kPa, x1 = 0.7498
  mass density: 31.4611 ± 0.0086 kg/m3
373.16 K, 4881.1 kPa, x1 = 0.7498
  mass density: 39.5669 ± 0.01 kg/m3
373.16 K, 6041.3 kPa, x1 = 0.7498
  mass density: 49.9291 ± 0.0091 kg/m3
373.17 K, 281.96 kPa, x1 = 0.2658
  mass density: 3.3776 ± 0.0032 kg/m3
373.17 K, 361.95 kPa, x1 = 0.2658
  mass density: 4.3551 ± 0.0033 kg/m3
373.17 K, 469.53 kPa, x1 = 0.2658
  mass density: 5.683 ± 0.0036 kg/m3
